These results are taken from patent US8354403B2, “Pyrrolidine derived beta 3 adrenergic receptor agonists” (Merck Sharp & Dohme Corp., priority 2009, dated 2013).

The structures appear in SMILES notation. Like-named read-outs stand apart in the source and are kept apart here.

The target of the assay is T1, human β3 adrenergic receptor (Homo sapiens, UniProt P13945).
T1 construct: expressed in transfected cells; host or cells: Chinese hamster ovary (CHO) cells, stably transfected
Kind of assay: Beta-3 agonist in vitro functional assay: cAMP production (LANCE TR-FRET) in CHO cells stably transfected with the cloned β3 receptor. Format: cell-based. Summed up: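 CHO cells stably expressing the cloned receptor, in HEPES-buffered HBSS with BSA and 0.6 mM IBMX, 6,000 cells/well, exposed to compound for 30 min at RT. cAMP read by LANCE TR-FRET against a cAMP standard curve. Isoproterenol defines maximal stimulation.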
Background: Changes in cAMP serve as a functional read-out for many G protein-coupled receptors.

The mark [1] stands for this setting: Table 10, Beta-3 agonist in vitro functional assay, read-out: Human β3 agonist functional activity.
[2] abbreviates: Table 5, cAMP, CHO cells, read-out: Human β3 agonist functional activity.
Setting [3] is: Table 12, human β3 functional activity given as ranges, read-out: Human β3 agonist functional activity.
[4] abbreviates: Table 7, cAMP, CHO cells, ranges as given for Tables 6 and 7, read-out: Human β3 agonist functional activity.
The mark [5] stands for this setting: Table 4, cAMP, CHO cells, read-out: Human β3 agonist functional activity.
Where [6] appears, read: Table 8, Beta-3 agonist in vitro functional assay, read-out: Human β3 agonist functional activity.
[7] abbreviates: Table 9, Beta-3 agonist in vitro functional assay, read-out: Human β3 agonist functional activity.
Setting [8] is: Table 11, cAMP, CHO cells, read-out: Human β3 agonist functional activity.

T1 sequence (P13945 whole entry): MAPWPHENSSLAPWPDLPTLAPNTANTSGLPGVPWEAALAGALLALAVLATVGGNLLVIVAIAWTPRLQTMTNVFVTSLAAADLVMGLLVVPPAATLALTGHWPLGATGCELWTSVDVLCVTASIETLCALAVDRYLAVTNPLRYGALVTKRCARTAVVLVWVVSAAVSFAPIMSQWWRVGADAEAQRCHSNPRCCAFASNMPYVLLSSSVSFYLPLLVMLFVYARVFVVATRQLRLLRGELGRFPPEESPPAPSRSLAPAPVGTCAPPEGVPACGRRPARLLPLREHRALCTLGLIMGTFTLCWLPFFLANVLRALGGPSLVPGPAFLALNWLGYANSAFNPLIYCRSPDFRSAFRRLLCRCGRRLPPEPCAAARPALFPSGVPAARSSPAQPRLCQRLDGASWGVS

With `CC(C(=O)N1CCC(O)CC1)N1CCN(C(=O)c2ccc(C[C@@H]3CC[C@H]([C@H](O)c4ccccc4)N3)cc2)CC1` (stereo partly drawn) [Example 489], the EC50 under setting [1] is 10 to 99.9 nM.

As to `COC(=O)c1ccccc1C1CCN(C(=O)c2ccc(C[C@@H]3CC[C@H]([C@H](O)c4ccccc4)N3)cc2)CC1` [Example 111], the EC50 under setting [2] was 10 to 99.9 nM.

Regarding `CC(c1cccnn1)N1CCN(C(=O)c2ccc(CC3CCC(C(O)c4ccccc4)N3)cc2)CC1` (single isomer, unassigned) [Example 592], the EC50 under setting [3] lay within 100 to 999 nM.

As to `O=C(c1ccc(C[C@@H]2CC[C@H]([C@H](O)c3ccccc3)N2)cc1)N1CCC(S(=O)(=O)c2ccc(F)cc2)CC1` [Example 128], the EC50 under setting [2] is 10 to 99.9 nM.

Regarding `N#CC1(c2ncccn2)C2CN(C(=O)c3ccc(C[C@@H]4CC[C@H]([C@H](O)c5ccccc5)N4)cc3)CC21` (stereo partly drawn) [Example 237], under setting [4], the EC50 is 10 to 99.9 nM.

In the case of `O=C(c1ccc(C[C@@H]2CC[C@H]([C@H](O)c3cccnc3)N2)cc1)N1CCC(S(=O)(=O)c2ccc(F)cc2)CC1` [Example 129], the EC50 under setting [2] lay in the range of 100 to 999 nM.

`Cc1nonc1C1CCCN1C(=O)c1ccc(C[C@@H]2CC[C@H]([C@H](O)c3ccccc3)N2)cc1` (stereo partly drawn) [Example 14]: under setting [5], the EC50 was 100 to 999 nM.

Turning to `O=C1C=C(c2ccccc2)C2(CCN(C(=O)c3ccc(C[C@@H]4CC[C@H]([C@H](O)c5ccccc5)N4)cc3)CC2)O1` [Example 281], under setting [6], the EC50 was 1 to 9.9 nM.

As to `O=C(c1ccc(C[C@@H]2CC[C@H]([C@H](O)c3ccccc3)N2)cc1)N1CCc2c(O)noc2C1` [Example 54], the EC50 (Human β3 agonist functional activity) was 100 to 999 nM.

With `N#Cc1ccc(S(=O)(=O)C2CCN(C(=O)c3ccc(C[C@@H]4CC[C@H]([C@H](O)c5ccccc5)N4)cc3)CC2)cc1` [Example 137], under setting [2], the EC50 was in the range of 10 to 99.9 nM.

With `O=C(c1ccc(C[C@@H]2CC[C@H]([C@H](O)c3ccccc3)N2)cc1)N1CCN(c2ccncc2)CC1` [Example 356], the EC50 under setting [7] lay in the range of 100 to 999 nM.

Regarding `O=C(NC1CCN(C(=O)c2ccc(C[C@@H]3CC[C@H]([C@H](O)c4ccccc4)N3)cc2)CC1)OCc1ccccc1` [Example 68], under setting [2], the EC50 was 10 to 99.9 nM.

`O=C(c1ccc(C[C@@H]2CC[C@H]([C@H](O)c3ccccc3)N2)cc1)N1CCC(c2ncc(-c3ccccc3)[nH]2)CC1` [Example 79]: the EC50 under setting [2] lay within 100 to 999 nM.

Consider `O=C(c1ncco1)C1C2CN(C(=O)c3ccc(C[C@@H]4CC[C@H]([C@H](O)c5ccccc5)N4)cc3)CC21` (stereo partly drawn) [Example 234], for which, under setting [4], the EC50 fell in the range of 10 to 99.9 nM.

Regarding `CCOc1cccnc1N1CCN(C(=O)c2ccc(C[C@@H]3CC[C@H]([C@H](O)c4ccccc4)N3)cc2)CC1` [Example 362], the EC50 under setting [7] was 10 to 99.9 nM.

In the case of `O=C(c1ccc(C[C@@H]2CC[C@H]([C@H](O)c3ccccc3)N2)cc1)N1CCC(c2nn[nH]n2)CC1` [Example 105], the EC50 under setting [2] is 10 to 99.9 nM.

Turning to `COC(=O)COc1cccnc1N1CCN(C(=O)c2ccc(C[C@@H]3CC[C@H]([C@H](O)c4ccccc4)N3)cc2)CC1` [Example 368], the EC50 under setting [7] was in the range of 10 to 99.9 nM.

Take `O=C(c1ccc(C[C@@H]2CC[C@H]([C@H](O)c3ccccc3)N2)cc1)N1CCC2(CCCO2)CC1` [Example 307]: under setting [6], the EC50 lay in the range of 10 to 99.9 nM.

With `N#CC1(c2cccnn2)C2CN(C(=O)c3ccc(C[C@@H]4CC[C@H]([C@H](O)c5ccccc5)N4)cc3)CC21` (stereo partly drawn) [Example 236], under setting [4], the EC50 lay within 10 to 99.9 nM.

With `O=C(c1ccc(CC2CCC(C(O)c3cccnc3)N2)cc1)N1CCC2(CC1)C(=O)NCC2c1ccc(F)cc1` (single isomer, unassigned) [Example 555], under setting [3], the EC50 is 1 to 9.9 nM.

With `Cn1cnnc1C1CCN(C(=O)c2ccc(C[C@@H]3CC[C@H]([C@H](O)c4ccccc4)N3)cc2)CC1` [Example 98], the EC50 under setting [2] is 100 to 999 nM.

Regarding `C[C@H](c1ccccn1)N1CC2CC1CN2C(=O)c1ccc(C[C@@H]2CC[C@H]([C@H](O)c3ccccc3)N2)cc1` (stereo partly drawn) [Example 537], the EC50 under setting [8] lay in the range of 100 to 999 nM.

In the case of `Cc1noc(C(C)N2CCN(C(=O)c3ccc(C[C@@H]4CC[C@H]([C@H](O)c5ccccc5)N4)cc3)CC2)n1` (stereo partly drawn) [Example 422], the EC50 under setting [7] lay in the range of 10 to 99.9 nM.

For `O=C(c1ccc(C[C@@H]2CC[C@H]([C@H](O)c3ccccc3)N2)cc1)N1CCN(c2ncccc2O)CC1` [Example 360], under setting [7], the EC50 is 10 to 99.9 nM.

For `CC(C)(c1ccccc1F)N1CCN(C(=O)c2ccc(C[C@@H]3CC[C@H]([C@H](O)c4ccccc4)N3)cc2)CC1` [Example 412], the EC50 under setting [7] fell in the range of 1 to 9.9 nM.

For the molecule `CC(C(=O)N1CC[C@H](F)C1)N1CCN(C(=O)c2ccc(C[C@@H]3CC[C@H]([C@H](O)c4ccccc4)N3)cc2)CC1` (stereo partly drawn) [Example 475], the EC50 under setting [1] lay in the range of 1 to 9.9 nM.

On to `O=C(c1ccc(CC2CCC(C(O)c3ccccc3)N2)cc1)N1CCN(C(c2ccccn2)C2CC2)CC1` (single isomer, unassigned) [Example 590], for which, under setting [3], the EC50 fell in the range of 1 to 9.9 nM.

Regarding `O=C(c1ccc(CC2CCC(C(O)c3ccccc3)N2)cc1)N1CCN(C2CCN(c3ccccc3)C2=O)CC1` (single isomer, unassigned) [Example 606], the EC50 under setting [3] lay in the range of 10 to 99.9 nM.

As for `O=C(c1ccc(C[C@@H]2CC[C@H]([C@H](O)c3ccccc3)N2)cc1)N1CCCC2(CCc3cc(F)ccc3O2)C1` (stereo partly drawn) [Example 44], the EC50 under setting [5] fell in the range of 100 to 999 nM.

`C[C@@H]1CN(Cc2ccccn2)CCN1C(=O)c1ccc(C[C@@H]2CC[C@H]([C@H](O)c3ccccc3)N2)cc1` [Example 529]: the EC50 under setting [8] is 100 to 999 nM.

As for `O=C(O)CN1CCN(C(=O)c2ccc(C[C@@H]3CC[C@H]([C@H](O)c4ccccc4)N3)cc2)CC1` [Example 390], under setting [7], the EC50 lay within 100 to 999 nM.

As for `O=C(c1ccc(C[C@@H]2CC[C@H]([C@H](O)c3ccccc3)N2)cc1)N1CC(Oc2cncc(Cl)n2)C1` [Example 3], the EC50 under setting [5] fell in the range of 100 to 999 nM.

With `O=C(c1ccc(CC2CCC(C(O)c3ccccc3)N2)cc1)N1CCC2(CC1)C(=O)NCC2c1ccc(F)cc1` (single isomer, unassigned) [Example 557], under setting [3], the EC50 lay within 1 to 9.9 nM.

For `Cc1noc(C2CCN(C(=O)c3ccc(C[C@@H]4CC[C@H]([C@H](O)c5ccccc5)N4)cc3)C2)n1` (stereo partly drawn) [Example 11], the EC50 under setting [5] was 100 to 999 nM.

For the molecule `CC(C(=O)N(C)CCC#N)N1CCN(C(=O)c2ccc(C[C@@H]3CC[C@H]([C@H](O)c4ccccc4)N3)cc2)CC1` (stereo partly drawn) [Example 521], under setting [1], the EC50 lay in the range of 10 to 99.9 nM.

Regarding `O=C1CCC2(CCN(C(=O)c3ccc(C[C@@H]4CC[C@H]([C@H](O)c5ccccc5)N4)cc3)CC2)O1` [Example 273], the EC50 under setting [6] was in the range of 10 to 99.9 nM.

In the case of `O=C(c1ccc(C[C@@H]2CC[C@H]([C@H](O)c3ccccc3)N2)cc1)N1CCC(Cn2ccnc2)CC1` [Example 142], under setting [2], the EC50 fell in the range of 100 to 999 nM.

Turning to `CC(C)Oc1cccnc1N1CCN(C(=O)c2ccc(C[C@@H]3CC[C@H]([C@H](O)c4ccccc4)N3)cc2)CC1` [Example 363], the EC50 under setting [7] lay in the range of 10 to 99.9 nM.

As for `O=C(c1ccc(C[C@@H]2CC[C@H]([C@H](O)c3ccccc3)N2)cc1)N1CC2CC(n3cccn3)CC2C1` (stereo partly drawn) [Example 1, (R)-phenyl[(2R,5S)-5-(4-{[5-(1H-pyrazol-1-yl)hexahydrocyclopenta[c]pyrrol-2(1H)-yl]carbonyl}benzyl)pyrrolidin-2-yl]methanol], the EC50 (given as a range, cAMP, CHO cells, read-out: human β3 functional activity) fell in the range of 10 to 99.9 nM.

`CC1CC2(CCN(C(=O)c3ccc(C[C@@H]4CC[C@H]([C@H](O)c5ccccc5)N4)cc3)CC2)OC1=O` (stereo partly drawn) [Example 274]: the EC50 under setting [6] was in the range of 10 to 99.9 nM.

With `O=C(c1ccc(C[C@@H]2CC[C@H]([C@H](O)c3ccccc3)N2)cc1)N1CCN(Cc2cnn(-c3ccccc3)n2)CC1` [Example 408], the EC50 under setting [7] was in the range of 1 to 9.9 nM.

Regarding `CC(C)n1nnnc1CN1CCN(C(=O)c2ccc(C[C@@H]3CC[C@H]([C@H](O)c4ccccc4)N3)cc2)CC1` [Example 400], the EC50 under setting [7] is 10 to 99.9 nM.

For `O=C(c1ccc(C[C@@H]2CC[C@H]([C@H](O)c3cccnc3)N2)cc1)N1CCN(c2nccc(-c3ccccc3)n2)CC1` [Example 377], under setting [7], the EC50 was in the range of 10 to 99.9 nM.

Turning to `O=C(c1ccc(C[C@@H]2CC[C@H]([C@H](O)c3ccccc3)N2)cc1)N1CCN(Cc2ncccc2Br)CC1` [Example 416], the EC50 under setting [7] fell in the range of 10 to 99.9 nM.

For `O=C(O)C1CCN(C(=O)c2ccc(C[C@@H]3CC[C@H]([C@H](O)c4ccccc4)N3)cc2)CC1` [Example 117], under setting [2], the EC50 was in the range of 100 to 999 nM.

In the case of `C[C@@H](c1ccccn1)N1C2CCC1CN(C(=O)c1ccc(C[C@@H]3CC[C@H]([C@H](O)c4ccccc4)N3)cc1)C2` [Example 540], the EC50 under setting [8] fell in the range of 100 to 999 nM.

As for `O=C(c1ccc(C[C@@H]2CC[C@H]([C@H](O)c3ccccc3)N2)cc1)N1CCCC2(CCOC2=O)C1` (stereo partly drawn) [Example 40], the EC50 under setting [5] was in the range of 10 to 99.9 nM.

Regarding `O=C(c1ccc(C[C@@H]2CC[C@H]([C@H](O)c3ccccc3)N2)cc1)N1CCC(n2cc(-c3ccccc3)nn2)CC1` [Example 80], the EC50 under setting [2] lay in the range of 100 to 999 nM.

Turning to `CC1(C)CC2(CCN(C(=O)c3ccc(C[C@@H]4CC[C@H]([C@H](O)c5ccccc5)N4)cc3)CC2)OC1=O` [Example 279], under setting [6], the EC50 fell in the range of 10 to 99.9 nM.

On to `O=C(c1ccc(C[C@@H]2CC[C@H]([C@H](O)c3ccccc3)N2)cc1)N1CCC2(CC1)OCCS2(=O)=O` [Example 303], for which, under setting [6], the EC50 lay in the range of 10 to 99.9 nM.

As to `O=C(c1ccc(C[C@@H]2CC[C@H]([C@H](O)c3ccccc3)N2)cc1)N1CCN(Cc2c(F)cccc2F)CC1` [Example 411], under setting [7], the EC50 is 1 to 9.9 nM.

On to `CC(Oc1ccncn1)C1CCN(C(=O)c2ccc(C[C@@H]3CC[C@H]([C@H](O)c4ccccc4)N3)cc2)CC1` (stereo partly drawn) [Example 167], for which the EC50 under setting [2] lay in the range of 100 to 999 nM.

With `CO[C@H]1CCN(C(=O)c2ccc(C[C@@H]3CC[C@H]([C@H](O)c4ccccc4)N3)cc2)C1` [Example 8], under setting [5], the EC50 is 100 to 999 nM.

Take `CC(C)(C)C1CC2(CCN(C(=O)c3ccc(CC4CCC(C(O)c5ccccc5)N4)cc3)CC2)C(=O)O1` (single isomer, unassigned) [Example 570]: the EC50 under setting [3] lay within 1 to 9.9 nM.
